One data set deals with NEUTROPHILS
Kind of data set: neutrophil superoxide anion release. The following applies: read-out: IC50 of Compounds in Cells, NEUTROPHILS
The format is cell-based. As for the experimental part: (§1) To investigate the effect that Formula I compounds have on cell growth and activity, assays are performed such as to determine growth inhibition of cultured tumor cells and cultured keritinocytes, and neutrophil superoxide anion release by well known techniques.
(§2) Table 1 also includes data from testing in a cellular assay known as the "Bleb" assay. In the Bleb assay K562 cells, a human chronic myeloid leukemia cell line, are treated with compound and scored for the appearance of morphologic changes referred to as blebs on the cell surface. […] H. Osada et al., (1988) 41:7, 925.

The subject of data set [1] is K562 cells. Kind of data set: Bleb assay in K562 cells. The format is cell-based. The following applies: Homo sapiens, blebs on the cell surface, read-out: IC50 of Compounds in Cells, BLEB. As for the experimental part: as §2
The test system of data set [2] is phorbol ester-induced mouse ear edema. Kind of data set: phorbol ester-induced mouse ear edema model. The format is in vivo. As to the method: Formula I compounds also have been tested in vivo to determine their antiinflammatory activity. The model used for this testing is the well-known, widely accepted phorbol ester-induced mouse ear edema model wherein the efficacy of a test compound to reduce the edema induced by the phorbol ester is measured.

Data set [3] in a line: water solubility noted during work-up. Type of data set: physicochemical. The note with it: observation during HPLC fraction work-up. As to the method:
A solution of 8-exo-[4-(2-carbophenylmethoxy-6-phenylmethoxybenzoyl)-3,5-bis(phenylmethoxy)benzoyloxy]-9-endo-(4-phenylmethoxybenzamido)tricyclo[5.2.1.0 (2,6)]decane (0.33 g, 0.32 mmol) in 6:1 ethanol/ethyl acetate (35 mL) in a 500 mL Parr bottle was treated with trifluoroacetic acid (0.15 mL) and purged with nitrogen. Pearlman's catalyst (150 mg) was added, and the vessel was charged with hydrogen (50 psi) and shaken on a Parr apparatus for 18 h. The bottle was carefully evacuated of hydrogen and the solution was filtered through Celite®, then the filter cake was washed with ethanol, but not allowed to dry. The filtrate was concentrated in vacuo to a foamy yellow solid, which was dissolved in DMF (0.8 mL) and loaded onto HPLC; conditions: A- 0.1% TFA/5% CH3 CN/H2 O, B- CH3 CN, 100% A to 100% B over one h, 25 mL/min, 41×250 mm C18 column. […] (dec). Rf (2:1 methylene chloride/methanol on silica) 0.50; IR (KBr) 1703, 1635, 1608 cm^-1; ^1 H NMR (d6 -DMSO) d 11.66 (s, 2H), 9.97 (br s, 1H), 9.88 (s, 1H), 8.35 (d, 1H, J=7 Hz), 7.75 (d, 2H, J=9 Hz), 7.38 (d, 1H, J=8 Hz), 7.28 (t, 1H, J=8 Hz), 7.06 (d, 1H, J=8 Hz), 6.83 (s, 2H), 6.79 (d, 2H, J=9 Hz), 4.83 (d, 1H, J=2.5 Hz), 4.11 (m, 1H), 2.25 (d, 1H, J=4 Hz), 2.10-2.20 (m, 1H), 2.07 (br s, 2H), 1.60-2.00 (m, 3H), 1.48 (br s, 2H), 1.10-1.30 (m, 1H), 0.90-1.10 (m, 2H); mass spectrum (FAB): m/z 588. […]

Another data set has as its system MCF-7. Kind of data set: growth inhibition of cultured tumor cells (MCF-7). The note with it: Homo sapiens, MCF7, read-out: IC50 of Compounds in Cells, MCF-7. The format is cell-based. As for the experimental part: as §1, §2
The test system of the next data set is NHEK. Kind of data set: growth inhibition of cultured keritinocytes (NHEK). The format is cell-based. The following applies: read-out: IC50 of Compounds in Cells, NHEK. As for the experimental part:
as §1, §2

Data set [4] has as its system K562 cells. The following applies: previous studies, H. Osada et al. (1988); cited from earlier work.

pIC50: −log10 of the molar value. Structures can show the parent of a compound that is named as a salt.

Regarding `COC(=O)c1cccc(O)c1C(=O)c1c(O)cc(C(=O)OC2C3CCC(C3)C2NC(=O)c2ccc(O)cc2)cc1O` (stereo not drawn) [Example 16, anti-2-[4-(2-Methoxycarbonyl-6-hydroxybenzoyl)-3,5-dihydroxybenzoyloxy]-3-(4-hydroxybenzamido)bicyclo[2.2.1]heptane], the pIC50 in the data set with NEUTROPHILS was 5.00; in the data set on K562 cells [1], 4.60. Moreover, in data set [2], the “antiinflammatory activity: reduction of edema induced by phorbol ester” value (“antiinflammatory activity: reduction” below) is “active”.

Turning to `O=C(NC1C2CCC(C2)C1OC(=O)c1cc(O)c(C(=O)c2c(O)cccc2C(=O)O)c(O)c1)c1ccc(O)cc1` (stereo not drawn) [Example 13, anti-2-[4-(2-Carboxy-6-hydroxybenzoyl)-3,5-dihydroxybenzoyloxy]-3-(4-hydroxybenzamido)bicyclo[2.2.1]heptane], the “antiinflammatory activity: reduction” value in data set [2] is given as “active”. For the compound `O=C(NC1C2CC(C3CCCC32)C1OC(=O)c1cc(O)c(C(=O)c2c(O)cccc2C(=O)O)c(O)c1)c1ccc(O)cc1` (stereo not drawn) [Example 21, 8-endo-[4-(2-Carboxy-6-hydroxybenzoyl)-3,5-dihydroxybenzoyl-oxy]-9-endo-(4-hydroxybenzamido)tricyclo[5.2.1.0 (2,6)]decane], the water solubility result in data set [3] is on record as “not water-soluble”. As for `COC(=O)c1cccc(O)c1C(=O)c1c(O)cc(C(=O)O[C@@H]2Cc3ccccc3[C@H]2NC(=O)c2ccc(O)cc2)cc1O` (relative stereo) [Example 5], the pIC50 is 4.64 in the data set on MCF-7, 4.30 in the data set on K562 cells [1] and 5.30 in the data set with NHEK. For the same compound, the “antiinflammatory activity: reduction” value in data set [2] is recorded as “active”.

As for “7-[4-(2-Methoxycarbonyl-6-hydroxybenzoyl)-3,5-dihydroxybenzoyloxy]-2-(hydroxybenzamido)bicyclo[2.2.1]heptane [Example 14]”, in the data set with NEUTROPHILS, the pIC50 is 5.00. Turning to `O=C(N[C@@H]1c2ccccc2C[C@H]1OC(=O)c1cc(O)c(C(=O)c2c(O)cccc2C(=O)O)c(O)c1)c1ccc(O)cc1` (relative stereo) [Example 3, anti-1-(4-Hydroxybenzamido)-2-[3,5-dihydroxy-4-(2-carboxy-6-hydroxybenzoyl)benzoyloxy]indane], the pIC50 was 4.15 in the data set with MCF-7 and 4.30 with NHEK. Also, the “antiinflammatory activity: reduction” value in data set [2] is on record as “active”. As for `O=C(N[C@@H]1c2ccccc2C[C@@H]1OC(=O)c1cc(O)c(C(=O)c2c(O)cccc2C(=O)O)c(O)c1)c1ccc(O)cc1` (relative stereo) [Example 4, syn-(4-Hydroxybenzamido)-2-[3,5-dihydroxy-4-(2-carboxy-6-hydroxybenzoyl)benzoyloxy]indane], the pIC50 in the data set on MCF-7 is 5.40 to 5.68; in the data set on NHEK, 4.37.

On to `COC(=O)c1cccc(O)c1C(=O)c1c(O)cc(C(=O)O[C@@H]2C3CCN(CC3)C[C@H]2NC(=O)c2ccc(O)cc2)cc1O` (relative stereo) [Example 8, anti-4-[4-(2-methoxycarbonyl-6-hydroxybenzoyl)-3,5-dihydroxybenzoyloxy]-3-(4-hydroxybenzamido)-1-azabicyclo[3.2.2]nonane, trifluoroacetic acid salt], for which the pIC50 in the data set with MCF-7 was 4.13; in the data set with K562 cells [1] it was 4.90; in the data set with NHEK, 4.04.

In the case of `CN[C@@H]1C[C@H]2O[C@@](C)([C@@H]1OC)n1c3ccccc3c3c4c(c5c6ccccc6n2c5c31)C(=O)NC4` [staurosporine], in the data set on K562 cells [4], the phorbol ester-induced blebbing entry is “inhibits”. Regarding `O=C(NC1C2CC(C3CCCC32)C1OC(=O)c1cc(O)c(C(=O)c2c(O)cccc2C(=O)O)c(O)c1)c1ccc(O)cc1` (stereo not drawn) [Example 20, 8-exo-[4-(2-Carboxy-6-hydroxybenzoyl)-3,5-dihydroxybenzoyloxy]-9-endo-(4-hydroxybenzamido)tricyclo[5.2.1.0 (2,6)]decane], the water solubility result in data set [3] was “not water-soluble”. Take `O=C(N[C@H]1[C@H]2CC[C@H](C2)[C@H]1OC(=O)c1cc(O)c(C(=O)c2c(O)cccc2C(=O)O)c(O)c1)c1ccc(O)cc1` (relative stereo) [Example 12, syn-2-[4-(2-Carboxy-6-hydroxybenzoyl)-3,5-dihydroxybenzoyloxy]-3-(4-hydroxybenzamido)bicyclo[2.2.1]heptane]: the “antiinflammatory activity: reduction” value in data set [2] is on record as “active”.
